Test results published in PubChem BioAssay (NCI).
Several values for one entry are separate records, joined by “and”; a condition that tells them apart may be missing. Equal entries are not always repeated.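 Where inhibition never reached the appropriate level, the endpoint shown equals the highest concentration tested. Otherwise, values were interpolated linearly from a five-concentration, 48-hour dose response in 96-well plates. GI50 is the concentration that inhibits growth by half. At the TGI there is no net growth.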

Experiments:
Assay in all cases: NCI-60 cell line screen, 48 h
[1] = tested on: COLO 205 colon
[2] = tested on: DMS 114 small cell lung
[3] = tested on: HT29 colon
[4] = tested on: NCI-H226 lung
[5] = tested on: OVCAR-8 ovarian
[6] = tested on: SK-MEL-5 melanoma
[7] = tested on: SNB-78 CNS
[8] = tested on: UACC-62 melanoma
[9] = tested on: MDA-MB-231 breast
[10] = tested on: UO-31 renal

For `Nc1ncnc2c1N=CN(Oc1ccccc1)N2`, the TGI [1] was > 100 µM, the TGI [2] was > 100 µM and the TGI [3] was > 100 µM. For the same compound, the TGI [4] was > 100 µM, the TGI [5] was > 100 µM and the TGI [6] was > 100 µM. The TGI [7] was > 100 µM and the TGI [8] was > 100 µM.

In the case of `C=C(C)[C@@H]1CC[C@]2(COC(=O)c3ccccc3C(=O)O)CC[C@]3(C)[C@H](CC[C@@H]4[C@@]5(C)CC[C@H](OC(=O)c6ccccc6C(=O)O)C(C)(C)[C@@H]5CC[C@]43C)[C@@H]12`, the GI50 [1] is reported as > 100 µM, the TGI [1] is reported as > 100 µM and the GI50 [3] is reported as 46 µM. The TGI [3] was > 100 µM, the GI50 [9] was 25 µM and the TGI [9] was 69.3 µM. The GI50 [4] was 32 µM, the TGI [4] was > 100 µM and the GI50 [5] was 42.6 µM. For the same compound, the TGI [5] was > 100 µM, the GI50 [6] was 99.2 µM and the TGI [6] was > 100 µM. The GI50 [8] was 16.6 µM, the TGI [8] was > 100 µM and the GI50 [10] was 32.1 µM. The TGI [10] was > 100 µM.

In the case of `OCC(O)C(OC1OC(CO)C(O)C(O)C1O)c1nn(-c2ccc(Cl)cc2)c2nc3cc(Cl)c(Cl)cc3nc12` (stereo not given), the TGI [2] is reported as > 100 µM, the TGI [3] is reported as > 100 µM and the TGI [5] is reported as > 100 µM. For the same compound, the TGI [7] was > 100 µM, the TGI [8] was > 100 µM and the TGI [10] was > 100 µM.

For `O=c1c2cc(Br)ccc2n(C2OC(CO)C(O)C(O)C2O)c(=S)n1-c1ccccc1` (stereo not given), the TGI [1] was > 100 µM, the TGI [2] was > 100 µM and the TGI [3] was > 100 µM. The TGI [4] was > 100 µM, the TGI [5] was > 100 µM and the TGI [7] was > 100 µM. The TGI [10] was > 100 µM.

In the case of `NC(=O)/C=C/c1c[nH]c2nccnc12`, the TGI [1] is reported as 3.27 µM, the TGI [2] is reported as 8.53 µM and the TGI [3] is reported as > 25.2 µM. For the same compound, the TGI [9] was 31.6 µM, the TGI [4] was 5.72 µM and the TGI [5] was > 87.5 µM. It also gave a TGI [6] of 10.9 µM, a TGI [8] of 8.85 µM and a TGI [10] of 0.609 µM.

`COc1ccc(-n2nc(C(=O)NCC(=O)Nc3nc4cc(OC)ccc4s3)c3ccccc3c2=O)cc1` was tested, and the GI50 [1] was 0.477 µM, the TGI [1] was 3.89 µM and the GI50 [3] was 0.441 µM. The TGI [3] was 1.78 µM, the GI50 [9] was 1.49 µM and the TGI [9] was 4.46 µM. It also gave a GI50 [4] of 1.48 µM, a TGI [4] of 7.5 µM and a GI50 [5] of 0.533 µM. The TGI [5] was 2 µM, the GI50 [6] was 1.55 µM and the TGI [6] was > 42.7 µM. The GI50 [8] was 1.76 µM and the GI50 [10] was 2.28 µM.

In the case of `O=C(Cc1ccc(-c2ccc(OCCN3CCOCC3)cc2)cn1)NCc1ccccc1`, the GI50 [1] is reported as 0.0291 µM and 0.0361 µM, the TGI [1] is reported as 0.0858 µM and 0.632 µM and the GI50 [3] is reported as 0.0343 µM and 0.0342 µM. The TGI [3] was > 37.6 µM, the GI50 [9] was 0.0577 µM and 0.0833 µM and the TGI [9] was > 100 µM. The GI50 [4] was 0.244 µM and 0.112 µM, the TGI [4] was > 100 µM and the GI50 [5] was 0.0466 µM and 0.0493 µM. For the same compound, the TGI [5] was > 36.2 µM, the GI50 [6] was 0.0286 µM and 0.0399 µM and the TGI [6] was 0.22 µM and 1.25 µM. The GI50 [8] was 0.0408 µM, the TGI [8] was > 100 µM and the GI50 [10] was 0.0821 µM and 0.2 µM. The TGI [10] was > 100 µM.

With `COc1ccc2c3c1OC1C4(CCC5C(C2)N(CC2CC2)CCC351)OCCO4` (stereo not given) the TGI [1] was > 100 µM, the TGI [3] was > 100 µM and the TGI [9] was > 100 µM. The TGI [4] was > 100 µM, the TGI [5] was > 100 µM and the TGI [6] was > 100 µM. For the same compound, the TGI [8] was > 100 µM and the TGI [10] was > 100 µM.

`COc1cc(NC(=O)c2cc3ccccc3cc2O)c(OC)cc1Cl` gave a GI50 [1] of 2.44 µM, a TGI [1] of 8.51 µM and a GI50 [3] of 2.89 µM. For the same compound, the TGI [3] was 19.8 µM, the GI50 [9] was 1.57 µM and the TGI [9] was 4.79 µM. For the same compound, the GI50 [4] was 1.45 µM, the TGI [4] was 6.04 µM and the GI50 [5] was 2.84 µM. For the same compound, the TGI [5] was > 32.8 µM, the GI50 [6] was 1.38 µM and the TGI [6] was 2.93 µM. For the same compound, the GI50 [8] was 1.35 µM, the TGI [8] was 5.65 µM and the GI50 [10] was 1.16 µM. The TGI [10] was > 24.9 µM.

With `COc1cc2ccnc(-c3n[nH]c4cc(OC)c(OC)cc34)c2cc1OC` the TGI [1] was > 100 µM, the TGI [2] was > 100 µM and the TGI [3] was > 100 µM. For the same compound, the TGI [4] was > 100 µM, the TGI [5] was > 100 µM and the TGI [6] was > 100 µM. The TGI [8] was > 100 µM and the TGI [10] was > 100 µM.

With `C=CC(=O)OCCCS(=O)(=O)[O-].C=CC(=O)OCCCS(=O)(=O)[O-].NC1CCCCC1N.[Pt+4]` the GI50 [1] was > 25 µM, the TGI [1] was > 25 µM and the GI50 [3] was > 25 µM. For the same compound, the TGI [3] was > 25 µM, the GI50 [4] was > 25 µM and the TGI [4] was > 25 µM. For the same compound, the GI50 [5] was > 25 µM, the TGI [5] was > 25 µM and the GI50 [6] was > 25 µM. The TGI [6] was > 25 µM, the GI50 [7] was > 25 µM and the TGI [7] was > 25 µM. For the same compound, the GI50 [8] was > 25 µM, the TGI [8] was > 25 µM and the GI50 [10] was > 25 µM. For the same compound, the TGI [10] was > 25 µM.

For `O=C1c2ccccc2-c2c1c1ccc([N+](=O)[O-])cc1c(=O)n2CCN1CCOCC1`, the GI50 [1] was > 100 µM, the TGI [1] was > 100 µM and the GI50 [3] was > 100 µM. The TGI [3] was > 100 µM, the GI50 [9] was > 100 µM and the TGI [9] was > 100 µM. For the same compound, the GI50 [4] was > 100 µM, the TGI [4] was > 100 µM and the GI50 [5] was > 100 µM. For the same compound, the TGI [5] was > 100 µM, the GI50 [6] was > 100 µM and the TGI [6] was > 100 µM. The GI50 [8] was 82.7 µM, the TGI [8] was > 100 µM and the GI50 [10] was > 100 µM. For the same compound, the TGI [10] was > 100 µM.

`Nc1ccccc1-n1c2c(c3ccccc3c1=O)C(=O)c1ccccc1-2` was tested, and the TGI [1] was > 100 µM, the TGI [3] was > 100 µM and the TGI [9] was > 100 µM. For the same compound, the TGI [4] was > 100 µM, the TGI [5] was 45.4 µM and the TGI [6] was > 100 µM. The TGI [8] was > 100 µM and the TGI [10] was 33.9 µM.

With `CC[C@H](C)C(=O)O[C@H]1C[C@@H](C)C=C2C=C[C@H](C)[C@H](CC[C@@H]3C[C@@H](O)CC(=O)O3)[C@H]21` the GI50 [1] was 14.6 µM and 15.3 µM, the TGI [1] was 51.3 µM and > 52.4 µM and 14.7 µM and the TGI [2] was > 30 µM. The GI50 [3] was 24.7 µM and 21.4 µM, the TGI [3] was > 100 µM and the GI50 [9] was 0.495 µM and 0.31 µM. For the same compound, the TGI [9] was 3.5 µM and 1.51 µM, the GI50 [4] was 10.1 µM and 6.22 µM and the TGI [4] was 54.7 µM and > 51 µM and > 30 µM. For the same compound, the GI50 [5] was 2.96 µM and 6.79 µM, the TGI [5] was > 100 µM and the GI50 [6] was 10.7 µM and 2.97 µM. The TGI [6] was > 100 µM and 10.7 µM and 16.1 µM, the GI50 [8] was 2.83 µM and 2.59 µM and the TGI [8] was 18.9 µM and 17.2 µM and > 30 µM. For the same compound, the GI50 [10] was 11 µM and 4.7 µM and the TGI [10] was 80.7 µM and 29.6 µM and 14.2 µM.

Compound `CC(C)(C)[Si](C)(C)O/N=C\c1cccc(O[Si](C)(C)C(C)(C)C)c1` has a TGI [1] of 33.1 µM, a TGI [2] of 35.6 µM and a TGI [3] of 31 µM. For the same compound, the TGI [5] was 39.6 µM, the TGI [6] was 34.2 µM and the TGI [7] was 30.8 µM. The TGI [8] was 32.4 µM and the TGI [10] was 29.6 µM.

For `COC(=O)c1ccc(N/C=C(/C#N)c2ccsc2)cc1`, the TGI [1] was > 100 µM, the TGI [2] was 43.8 µM and the TGI [3] was 25.3 µM. For the same compound, the TGI [4] was 39 µM, the TGI [5] was 19.5 µM and the TGI [7] was 43.4 µM. The TGI [8] was 60.5 µM and the TGI [10] was 32.5 µM.

`COc1ccc(C2C(C(=O)O)=C(CO)Oc3cc4c(cc32)OCO4)c(OC)c1` (stereo not given) was tested, and the TGI [1] was > 100 µM, the TGI [2] was > 100 µM and the TGI [3] was > 100 µM. For the same compound, the TGI [5] was > 100 µM, the TGI [6] was > 100 µM and the TGI [7] was > 100 µM. The TGI [8] was > 100 µM and the TGI [10] was > 100 µM.

`CCN(CC)CCC(CNc1c(C)cnc2cc(Cl)ccc12)c1ccc(Cl)c(Cl)c1` (stereo not given) was tested, and the GI50 [1] was 1.55 µM, the TGI [1] was 3.24 µM and the GI50 [3] was 1.14 µM. The TGI [3] was 10.1 µM, the GI50 [9] was 2.43 µM and the TGI [9] was 7.06 µM. For the same compound, the GI50 [4] was 13.5 µM, the TGI [4] was 30.8 µM and the GI50 [5] was 9.89 µM. For the same compound, the TGI [5] was 24.9 µM, the GI50 [6] was 1.82 µM and the TGI [6] was 3.26 µM. For the same compound, the GI50 [8] was 2.18 µM, the TGI [8] was 4.77 µM and the GI50 [10] was 2.59 µM. It also gave a TGI [10] of 13.9 µM.
